In ChEMBL document CHEMBL5550161, “Discovery of novel small molecules targeting the USP21/JAK2/STAT3 axis for the treatment of triple-negative breast cancer” (Eur J Med Chem, 2024):
Active and inactive are the calls of the source. The rule behind the calls is not given here.

Tests used:
HCC1806 [1] = assay: Antitumor activity against human HCC1806 cells xenografted in Balb/c mouse assessed as reduction in tumor weight at 2.5 mg/kg, ip administered once a week measured after 14 days; assay type: functional, organism-based; settings: time 14.0 day
HCC1806 [2] = assay: Antitumor activity against human HCC1806 cells xenografted in Balb/c mouse at 2.5 mg/kg, ip administered once a week measured after 14 days relative to control; assay type: functional; settings: HCC1806, 336 h, time 14 day, read-out: TGI
Hs-578T = assay: Anti-proliferative activity against human Hs-578T cells assessed as cell growth inhibition incubated for 72 hrs by MTT assay; assay type: functional, cell-based
MDA-MB-231 = assay: Anti-proliferative activity against human MDA-MB-231 cells assessed as cell growth inhibition incubated for 72 hrs by MTT assay; assay type: functional, cell-based; settings: MDA-MB-231, 72 h
HCC1806 [3] = assay: Anti-proliferative activity against human HCC1806 cells assessed as cell growth inhibition incubated for 72 hrs by MTT assay; assay type: functional, cell-based; settings: HCC1806, 72 h

COc1cccc2c1C(=O)c1c(O)c3c(c(O)c1C2=O)C[C@@](O)(C(=O)CO)C[C@@H]3O[C@H]1C[C@H](N)[C@H](O)[C@H](C)O1 [DOXORUBICIN]
Activity (HCC1806 [1]): Active
inhibition in vivo at 2.5 mg/kg (HCC1806 [2]): 43.2%
IC50 (Hs-578T): 1070 nM
IC50 (MDA-MB-231): 210 nM
IC50 (HCC1806 [3]): 340 nM
